According to PubChem BioAssay AID179 (DTP/NCI, 2004):
Activity calls are given as the source filed them.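 How the source made its calls: active means compounds giving half or more protection of infected cells from virus-caused growth loss, again on retest; inactive means the rest.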

System: CEM cells HIV-1 protection, formazan growth assay
Assay: NCI AIDS Antiviral Assay
Details: for IC50: measured here: growth of uninfected CEM cells
Outline: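 Five concentrations of each compound were applied to infected and uninfected human CEM cells. Protection from HIV-1 was judged from growth measured with a soluble formazan assay.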

In the case of CC1=CC2C(C=C1)S(=O)(=O)N1CC21c1ccccc1 (stereo not drawn), the outcome is reported as “inactive”.

C=CCC1(C#N)C(=S)NC2=C(C(=O)CC(C)(C)C2)C1c1ccccc1 (stereo not drawn) gave an EC50 of over 200 µM and an IC50 of over 200 µM.

C#CCNC(=O)NCCCCC(NC(=O)OCc1ccccc1)C(=O)OCc1ccccc1 (stereo not drawn) was tested, and the EC50 was over 151 µM and the IC50 was 97.7 µM.

COc1ccc(-c2onc(-c3ccc([N+](=O)[O-])cc3)c2C2=NCCN2)cc1 was tested, and the EC50 was over 12.9 µM and the IC50 was over 12.9 µM.

Cc1nnc(N)nc1C/C=C/C(Sc1ccc(Cl)cc1)c1ccccc1 (stereo not drawn) showed an EC50 of over 9.77 µM and an IC50 of 3.98 µM.

Work on Cn1c(=O)c2cc(O)cnc2n(C)c1=O yielded an EC50 of over 200 µM and an IC50 of over 200 µM.

c1csc(-c2cscc2-c2ccsc2)c1 gave an EC50 of over 200 µM and an IC50 of 38.9 µM.

CCOC(=O)/C(=C/c1cccc(OC)c1)N(CC)CC gave an EC50 of over 182 µM and an IC50 of over 182 µM.

Compound CCOC(=O)C(Cc1ccccc1)P(=O)(OCC)OCC (stereo not drawn) has an EC50 of over 200 µM and an IC50 of 158 µM.

With O=C(Nc1ccc(CN2CCOCC2)cc1)c1ccc(C(=O)Nc2ccc(CN3CCOCC3)cc2)cc1 the EC50 was over 200 µM and the IC50 was over 200 µM.

Nc1ncc(Cl)c(NCC2(CO)CC(CCc3ccccc3)C2)n1 (stereo not drawn) gave an EC50 of over 200 µM and an IC50 of 3.24 µM.

O=C(O)CN(CCO)CCN(CC(=O)O)CC(=O)O.[Fe+2] showed an EC50 of over 200 µM and an IC50 of over 200 µM.

Cc1nnc2c3nccnc3c(N)nn12 was tested, and the EC50 was over 200 µM and the IC50 was over 200 µM.

With S=C1NC(c2ccco2)N2C(=S)NC(c3ccco3)N12 (stereo not drawn) the outcome was “inactive” and the IC50 was over 200 µM.

O=C(Nc1ccc([N+](=O)[O-])cc1[N+](=O)[O-])C(=O)C(C(=O)c1ccc2ccccc2c1)C1OC(=O)c2ccccc21 (stereo not drawn) showed an EC50 of over 66.1 µM and an IC50 of 19.5 µM.

Compound CCOC(=O)Cc1cnc(NC(NC(=O)CC)(C(F)(F)F)C(F)(F)F)s1 has an EC50 of over 200 µM and an IC50 of over 200 µM.

In the case of COC1/C=C/OC2(C)Oc3c(C)c(O)c4c(O)c(c(/C=N/N(c5ccccc5)c5ccccc5)c(O)c4c3C2=O)NC(=O)C(C)=C/C=C/C(C)C(O)C(C)C(O)C(C)C(OC(C)=O)C1C (stereo not drawn), the EC50 is reported as over 200 µM and the IC50 is reported as 7.41 µM.

For Cc1cn(CCCCCCOC(=O)NC(CCCN=C(N)N)C(=O)O)c(=O)[nH]c1=O (stereo not drawn), the EC50 was over 200 µM and the IC50 was over 200 µM.

With CC1=CC2CCC1(C)C/C2=C(/C)OC=O (stereo not drawn) the outcome was “inactive”.

For CCCCC(CC)COC(=O)CC(C(=O)OCC(CC)CCCC)S(=O)(=O)O (stereo not drawn) (tested in a mixture with another compound), the EC50 was over 200 µM and the IC50 was over 200 µM.

With COC(=O)C12CCC(C(=O)OC)(CC1)n1c(=O)n(-c3ccccc3)c(=O)n12 the EC50 was over 200 µM and the IC50 was over 200 µM.

CCOC(=O)C(CN1CCN(CC(NC=O)(C(=O)OCC)C(=O)OCC)CC1)(NC=O)C(=O)OCC showed an EC50 of over 200 µM and an IC50 of 35.5 µM.

With Cc1c(C2Cc3ccccc3N2C(=O)/C=C\C(=O)O)c2ccccc2n1C (stereo not drawn) the EC50 was over 692 µM and the IC50 was 14.5 µM.

Compound O=C1CC2[C@@H](N3CCCC3)CCC(N1Cc1ccccc1)C2(O)O (stereo partly drawn) has an EC50 of over 200 µM and an IC50 of over 200 µM.

COC(=O)C1(CCSc2ccccc2)CCCC1=O (stereo not drawn) was tested, and the EC50 was over 13.5 µM and the IC50 was over 13.5 µM.

In the case of Cc1ccccc1N(CCC#N)C1=NN(C(=O)CC(=O)Nc2ccccc2)C(c2ccccc2)C1 (stereo not drawn), the EC50 is reported as over 77.6 µM and the IC50 is reported as over 77.6 µM.

O=C1CSC(c2ccc(Cl)cc2)N1c1ccc(Oc2ccc(Cl)cc2)c(Cl)c1 (stereo not drawn) was tested, and the EC50 was over 200 µM and the IC50 was 24 µM.

With N#C/C(N)=C(\C#N)N=CNc1ccc(N)cc1 the EC50 was over 200 µM and the IC50 was over 100 µM.

C[n+]1ccccc1-c1nc(-c2cccc[n+]2C)nc(-c2cccc[n+]2C)n1 showed an EC50 of over 200 µM and an IC50 of over 200 µM.

In the case of CCCC(=O)NC(Nc1ccc(F)cc1)(C(F)(F)F)C(F)(F)F, the outcome is reported as “inactive”.

With O=C1c2c(O)cc(O)cc2C(C2OC(CO)C(O)C(O)C2O)c2cc(CO)cc(O)c21 (stereo not drawn) the EC50 was over 200 µM and the IC50 was over 200 µM.

COc1cc(/C=C/C(=O)CC(=O)/C=C/c2cc(OC)c(O)c(OC)c2)cc(OC)c1O showed an EC50 of over 200 µM and an IC50 of 12.6 µM.

O=C(OCCOC(=O)c1ccc2c(c1)C1(SCCS1)c1ccccc1-2)c1ccc2c(c1)C1(SCCS1)c1ccccc1-2 showed an EC50 of over 30.2 µM and an IC50 of over 30.2 µM.

Work on COc1ccc(S(=O)(=O)N/N=C/CN2C(=O)c3ccccc3C2=O)cc1OC yielded an EC50 of over 64.6 µM and an IC50 of over 64.6 µM.

Cc1cccc(NC(=O)CC(=O)N2N=C(N3c4ccccc4Sc4ccccc43)CC2c2ccccc2)c1 (stereo not drawn) showed an EC50 of over 151 µM and an IC50 of over 151 µM.

O=c1[nH]nc(Cc2ccccc2)n1C1CC1 was tested, and the EC50 was over 200 µM and the IC50 was over 200 µM.

Cc1nc2ccccc2c2nnc(SCC(=O)N(Cc3ccccc3)c3ccccc3)n12 showed an EC50 of over 200 µM and an IC50 of over 200 µM.

With CCCCCCCCCCCCCCCC(=O)Nc1ccn(C2CC(OP(=O)(O)OCC3OC(n4cc(C)c(=O)[nH]c4=O)CC3N=[N+]=[N-])C(CO)O2)c(=O)n1 (stereo not drawn) the EC50 was 0.813 µM and the IC50 was over 100 µM.

In the case of O=S1(=O)OC(c2ccc(O)cc2)(c2ccc(O)cc2)c2ccccc21, the outcome is reported as “inactive”.

For O=C(O)CCCNS(=O)(=O)c1ccc2ccccc2c1, the outcome was “inactive”.

For CC1CCCc2c1c1ccc3c(O)cccc3c1oc2=O (stereo not drawn), the EC50 was over 7.08 µM and the IC50 was over 7.08 µM.

In the case of Cc1c(-c2ccccc2)c(=O)oc2ccc(Cl)cc12, the outcome is reported as “inactive”.
